Counter-ions that a name gives are not always drawn.
Columns and labels:
mouse breast cancer EMT6 = experiment: Subcutaneous xenograft model of mouse breast cancer EMT6; assay type: in vivo, C57BL/6 or Bablc mice
Protocol: (§1) The method in subcutaneous xenograft tumor was as follows. The cultured specific tumor cells were digested and collected by centrifugation, and washed with sterile physiological saline for two times and then counted. The cell concentration was adjusted to 5×10^6/ml by physiological saline, and 0.2 ml of cell suspension was inoculated to the right armpit of C57BL/6 or Bablc mice. After inoculation, the animals were randomly divided into two groups in next day. Each group had 6-7 mice. After weighing, the animals were dosed once each day to monitor tumor size. When the tumor size reached to a certain size, the mice was weighed and blood was collected from mice orbit and then the mice were killed by removing the neck. The tumor tissue, thymus tissue and spleen tissue were collected and weighed respectively. Finally, the tumor growth inhibition rate was calculated, and the tumor growth inhibition rate was used to evaluate the level of anti-tumor effect.

[1] = test system: high metastatic melanoma B16F10; experiment: Lung metastasis model of high metastatic melanoma B16F10; assay type: in vivo, C57BL/6 mice; conditions: for Tumor number X ± SD: lung; for T/C % (relative tumor proliferation rate) / TGI % (tumor growth inhibition rate): tumor number
Protocol: The method in B16F10 lung metastasis model was as follows. The cultured B16F10 tumor cells were digested and centrifuged and washed for two times with sterile physiological saline and then counted. And the cell concentration was adjusted to 2.5×10^6/ml by physiological saline. 0.2 ml of cells were injected into the C57BL/6 mice through the tail vein, and the tumor cells will gather in the lung of the mice. After inoculation, the animals were randomly divided into two groups in next day. Each group had 6-7 mice. After weighing, the animals were dosed once each day. After 3 weeks, the mice were weighed and killed, the lung tissue was collected and weighed, and the number of lung tumors was counted after being fixed by the Bouin's Fluid. Finally, the tumor growth inhibition rate was calculated, and the tumor growth inhibition rate was used to evaluate the level of anti-tumor effect.
(§2) In the study of the mechanism of the above models, the method of flow cytometry was adopted in measuring the total cell proportion of T cells of various types. The specific steps were as follows. The samples were treated at first. For blood tissue, the orbital blood was taken. The red cell lysate was used to remove the red blood cells, and then the PBS buffer was used for wash. After being washed, the cells were collected. For the tumor and spleen, the tissues were grinded with a homogenizer, and then diluted with PBS buffer, then filtered by 300 meshes of screen. After the number of cells was counted for each sample, 1×10^6 cells were added into EP tube and stained for flow antibody. After incubation for 1 h on ice, each sample was washed 2 times with PBS buffer. The cell population was analyzed by VERSE flow instrument of BD Company. The total number of cells in tumor tissue was 1×10^5 and the total number of cells in blood and spleen tissues was 1×10^4. The ratio of T cells to total number of cells was analyzed after flow cytometry.

mouse colon cancer MC38 = experiment: Subcutaneous xenograft model of mouse colon cancer MC38; assay type: in vivo, C57BL/6 or Bablc mice; conditions: 60 mg/kg
Protocol: as §1

[2] = test system: high metastatic melanoma B16F10; experiment: Subcutaneous xenograft model of high metastatic melanoma B16F10; assay type: in vivo, C57BL/6 or Bablc mice; conditions: for T/C % (relative tumor proliferation rate) / TGI % (tumor growth inhibition rate): tumor weight
Protocol: as §1, §2

[3] = biological target: interaction between PD-1 and PD-L1 (Homo sapiens (Human), UniProt Q9NZQ7); experiment: Cisbio PD-1/PD-L1 binding assay kit (HTRF); conditions: molecular level, read-out: IC50 (M), inhibitory activity on the interaction between PD-1 and PD-L1
Excerpt: 1. In vitro activity evaluation: Cisbio PD-1/PD-L1 binding assay kit was applied for the detection method of in vitro enzymology level.
Screening Principles and Methods of PD-1/PD-L1 Small Molecule Inhibitors
1) Principle: PD-1 protein is with HIS tag, and PD-1 ligand PD-L1 is with hFc tag. Eu labeled anti-hFc antibody and XL665 labeled anti-HIS antibody are combined with the above two label proteins respectively. After laser excitation, energy can be transferred from donor Eu to receptor XL665, allowing XL665 to glow.
2) Experimental method: The specific method can be referred to Cisbio's PD-1/PD-L1 Kit (item 64CUS000C-2). Reagents should be dispensed in the following order. For 384-well white ELISA plate, 2 μl of diluent or target compound diluted with diluent was added to each well, and then 4 μl of PD-1 protein and 4 μl of PD-L1 protein were added per well, incubated for 15 min at room temperature; and 10 μl of a mixture of anti-Tag1-Eu3^+ and anti-Tag2-XL665 was added per well and incubated for 1 h to 4 h at room temperature and the fluorescence signals at 665 nm and 620 nm were measured with an Envison instrument. HTRF rate=(665 nm/620 nm)*10^4. 8-10 concentrations were detected for each compound and IC50 was calculated by Graphpad software.

[4] = spleen, CTX group, dose not given

Sequence of interaction between PD-1 and PD-L1 (Q9NZQ7 19-238): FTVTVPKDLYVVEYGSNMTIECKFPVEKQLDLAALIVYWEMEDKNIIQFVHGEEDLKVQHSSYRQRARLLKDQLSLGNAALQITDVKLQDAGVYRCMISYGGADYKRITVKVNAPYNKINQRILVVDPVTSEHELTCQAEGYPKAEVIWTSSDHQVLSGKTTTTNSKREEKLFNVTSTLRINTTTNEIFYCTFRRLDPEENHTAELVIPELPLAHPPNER

For `O=P1(N(CCCl)CCCl)NCCCO1` (stereo not drawn) [Cyclophosphamide (CTX), Cyclophosphamide, reference compound], the “T/C % (relative tumor proliferation rate)” value (mouse breast cancer EMT6; 60 mg/kg) was 14.1%, the “TGI % (tumor growth inhibition rate)” value (mouse breast cancer EMT6; 60 mg/kg) was 85.9% and the “Tumorweight(g) X ± SD” value (mouse breast cancer EMT6; 60 mg/kg) was 0.25 ± 0.17 g. The “Body weight (g) Mean ± SD Begin” value (mouse breast cancer EMT6; 60 mg/kg, begin) was 18.4 ± 0.3 g, the “Body weight (g) Mean ± SD End” value (mouse breast cancer EMT6; 60 mg/kg, end) was 19.4 ± 0.7 g and the “tumor growth inhibition rate” value (mouse breast cancer EMT6; Cyclophosphamide alone vs combination, dose not restated) was 85%. The “Body weight (g) Mean ± SD Begin” value ([1]; 80 mg/kg) was 20.1 ± 0.8 g, the “Body weight (g) Mean ± SD End” value ([1]; 80 mg/kg) was 21.4 ± 0.5 g and the “Tumor number X ± SD” value ([1]; 80 mg/kg) was 18 ± 14. For the same molecule, the “T/C % (relative tumor proliferation rate)” value ([1]; 80 mg/kg) was 85.7%, the “TGI % (tumor growth inhibition rate)” value ([1]; 80 mg/kg) was 14.3% and the “CD3+ percentage of T lymphocyte in mouse blood” value (“CD3+ percentage of T lymphocyte” below) ([1]; CTX group, dose not given) was 22.4 ± 5.5%. The “CD4+ percentage of T lymphocyte in mouse blood” value (“CD4+ percentage of T lymphocyte” for short) ([1]; CTX group, dose not given) was 13.0 ± 2.4%, the “CD8+ percentage of T lymphocyte in mouse blood” value (from here on “CD8+ percentage of T lymphocyte”) ([1]; CTX group, dose not given) was 7.5 ± 2.4% and the “T/C % (relative tumor proliferation rate)” value (mouse colon cancer MC38) was 5.4%. The “TGI % (tumor growth inhibition rate)” value (mouse colon cancer MC38) was 94.6%, the “Tumor weight(g) Mean ± SD” value (mouse colon cancer MC38) was 0.17 ± 0.05 g and the “Body weight (g) Mean ± SD Begin” value (mouse colon cancer MC38; begin) was 17.9 ± 0.6 g. For the same molecule, the “Body weight (g) Mean ± SD End” value (mouse colon cancer MC38; end) was 19.1 ± 0.8 g, the “Tumorweight(g) X ± SD” value ([2]; 80 mg/kg) was 1.55 ± 0.59 g and the “Body weight (g) Mean ± SD Begin” value ([2]; 80 mg/kg) was 20.3 ± 0.8 g. The “Body weight (g) Mean ± SD End” value ([2]; 80 mg/kg) was 23.3 ± 1.4 g, the “T/C % (relative tumor proliferation rate)” value ([2]; 80 mg/kg) was 60.00% and the “TGI % (tumor growth inhibition rate)” value ([2]; 80 mg/kg) was 40.00%. For the same molecule, the “CD3+ (%) T lymphocytes in spleen” value [2, 4] was 78.6 ± 2.5%, the “CD4+ (%) T lymphocytes in spleen” value [2, 4] was 24.6 ± 2.6% and the “CD8+ (%) T lymphocytes in spleen” value [2, 4] was 15.2 ± 3.1%. For the same molecule, the “CD3+ (%) tumor-infiltrating T lymphocytes” value ([2]; CTX group, dose not given) was 3.6 ± 1.5%, the “CD4+ (%) tumor-infiltrating T lymphocytes” value ([2]; CTX group, dose not given) was 1.7 ± 0.4% and the “CD8+ (%) tumor-infiltrating T lymphocytes” value ([2]; CTX group, dose not given) was 1.4 ± 0.3%.
`CCOC(=O)C(CO)NCc1cc(Cl)c(OCc2cccc(-c3ccccc3)c2Br)cc1OCc1cccnc1` (stereo not drawn) [Example 1, Ethyl N-(4-(2-bromo-3-phenylbenzyloxy)-5-chloro-2-(pyridin-3-yl-methyleneoxy)benzyl) serinate dihydrochloride] was tested, and the IC50 [3] was 1.48e-07 M.
In the case of `CCOC(=O)[C@H](CO)NCc1cc(Cl)c(OCc2cccc(-c3ccccc3)c2Br)cc1OCc1cccnc1.Cl.Cl` [Example 5, (S)-Ethyl N-(4-(2-bromo-3-phenylbenzyloxy)-5-chloro-2-(pyridin-3-yl-methyleneoxy)benzyl) serinate dihydrochloride], the “Body weight (g) Mean ± SD Begin” value ([1]; 15 mg/kg) is reported as 20.6 ± 0.7 g, the “Body weight (g) Mean ± SD End” value ([1]; 15 mg/kg) is reported as 20.2 ± 1.5 g and the “Tumor number X ± SD” value ([1]; 15 mg/kg) is reported as 18 ± 18. For the same molecule, the “T/C % (relative tumor proliferation rate)” value ([1]; 15 mg/kg) was 85.7%, the “TGI % (tumor growth inhibition rate)” value ([1]; 15 mg/kg) was 14.3% and the “Body weight (g) Mean ± SD Begin” value ([1]; 45 mg/kg) was 20.5 ± 0.6 g. The “Body weight (g) Mean ± SD End” value ([1]; 45 mg/kg) was 21.2 ± 0.7 g, the “Tumor number X ± SD” value ([1]; 45 mg/kg) was 16 ± 7 and the “T/C % (relative tumor proliferation rate)” value ([1]; 45 mg/kg) was 76.2%. For the same molecule, the “TGI % (tumor growth inhibition rate)” value ([1]; 45 mg/kg) was 23.8%, the “CD3+ percentage of T lymphocyte” value ([1]; 15 mg) was 22.7 ± 4.8% and the “CD4+ percentage of T lymphocyte” value ([1]; 15 mg) was 14.4 ± 3.3%. For the same molecule, the “CD8+ percentage of T lymphocyte” value ([1]; 15 mg) was 7.4 ± 1.9%, the “CD3+ percentage of T lymphocyte” value ([1]; 45 mg) was 25.8 ± 3.0% and the “CD4+ percentage of T lymphocyte” value ([1]; 45 mg) was 15.7 ± 2.5%. For the same molecule, the “CD8+ percentage of T lymphocyte” value ([1]; 45 mg) was 7.6 ± 1.8%, the “percentage of lymphocyte in mouse blood” value ([1]; result in words) was “increase” and the “Tumorweight(g) X ± SD” value ([2]; 15 mg/kg) was 2.69 ± 1.99 g. The “Body weight (g) Mean ± SD Begin” value ([2]; 15 mg/kg) was 20.4 ± 1.0 g, the “Body weight (g) Mean ± SD End” value ([2]; 15 mg/kg) was 24.2 ± 2.2 g and the “T/C % (relative tumor proliferation rate)” value ([2]; 15 mg/kg) was 104.26%. The “TGI % (tumor growth inhibition rate)” value ([2]; 15 mg/kg) was −4.26%, the “Tumorweight(g) X ± SD” value ([2]; 45 mg/kg) was 1.41 ± 0.60 g and the “Body weight (g) Mean ± SD Begin” value ([2]; 45 mg/kg) was 20.3 ± 1.0 g. The “Body weight (g) Mean ± SD End” value ([2]; 45 mg/kg) was 22.6 ± 1.4 g, the “T/C % (relative tumor proliferation rate)” value ([2]; 45 mg/kg) was 54.73% and the “TGI % (tumor growth inhibition rate)” value ([2]; 45 mg/kg) was 45.27%. For the same molecule, the “proportion of tumor-infiltrating lymphocytes” value ([2]; result in words) was “increase”, the “CD3+ (%) tumor-infiltrating T lymphocytes” value ([2]; 45 mg) was 10.1 ± 4.5% and the “CD4+ (%) tumor-infiltrating T lymphocytes” value ([2]; 45 mg) was 9.0 ± 4.7%. The “CD8+ (%) tumor-infiltrating T lymphocytes” value ([2]; 45 mg) was 5.2 ± 2.8%.
Molecule `CC(C)OC(=O)[C@H](CO)NCc1cc(Cl)c(OCc2cccc(-c3ccccc3)c2Br)cc1OCc1cccnc1` [Example 6, (S)-isopropyl N-(4-(2-bromo-3-phenylbenzyloxy)-5-chloro-2-(pyridin-3-yl-methyleneoxy)benzyl) serinate dihydrochloride] has an IC50 [3] of 8.23e-08 M.
With `O=C(O)[C@@H](CO)NCc1cc(Cl)c(OCc2cccc(-c3ccccc3)c2Br)cc1OCc1cccnc1` [Example 8, (R)—N-(4-(2-bromo-3-phenylbenzyloxy)-5-chloro-2-(pyridin-3-yl-methyleneoxy)benzyl) serine] the IC50 [3] was 4.29e-08 M.
For `O=C(O)CNCc1cc(Cl)c(OCc2cccc(-c3ccccc3)c2Br)cc1OCc1cccnc1` [Example 12, N-(4-(2-bromo-3-phenylbenzyloxy)-5-chloro-2-(pyridin-3-yl-methyleneoxy)benzyl) glycine], the IC50 [3] was 4.11e-08 M.
`CC(C)C(NCc1cc(Cl)c(OCc2cccc(-c3ccccc3)c2Br)cc1OCc1cccnc1)C(=O)O` (stereo not drawn) [Example 13, N-(4-(2-bromo-3-phenylbenzyloxy)-5-chloro-2-(pyridin-3-yl-methyleneoxy)benzyl) valine] showed an IC50 [3] of 2e-07 M.
`C/C(=C\C#N)NCc1cc(Cl)c(OCc2cccc(-c3ccccc3)c2Br)cc1OCc1cccnc1` [Example 14, (E)-3-(4-(2-bromo-3-phenylbenzyloxy)-5-chloro-2-(pyridin-3-yl-methyleneoxy)benzylamino) but-2-enenitrile] gave an IC50 [3] of 2.69e-05 M.
Molecule `CS(=O)(=O)NCCNCc1cc(Cl)c(OCc2cccc(-c3ccccc3)c2Br)cc1OCc1cccnc1` [Example 16, N-(2-methanesulfonaminoethyl)-4-(2-bromo-3-phenylbenzyloxy)-5-chloro-2-(pyridin-3-yl-methyleneoxy)benzylamine] has an IC50 [3] of 1.99e-07 M.
With `CC(=O)NCCNCc1cc(Cl)c(OCc2cccc(-c3ccccc3)c2Br)cc1OCc1cccnc1` [Example 17, N-(2-acetylaminoethyl)-4-(2-bromo-3-phenylbenzyloxy)-5-chloro-2-(pyridin-3-yl-methyleneoxy) benzylamine] the IC50 [3] was 5.51e-07 M.
In the case of `CC(C)C[C@H](NCc1cc(Cl)c(OCc2cccc(-c3ccccc3)c2Br)cc1OCc1cccnc1)C(=O)O` [Example 20, N-(4-(2-bromo-3-phenylbenzyloxy)-5-chloro-2-(pyridin-3-yl-methyleneoxy)benzyl) leucine], the IC50 [3] is reported as 6.1e-08 M.
Work on `O=C(O)[C@H](Cc1ccc(O)cc1)NCc1cc(Cl)c(OCc2cccc(-c3ccccc3)c2Br)cc1OCc1cccnc1` [Example 21, N-(4-(2-bromo-3-phenylbenzyloxy)-5-chloro-2-(pyridin-3-yl-methyleneoxy)benzyl) tyrosine] yielded an IC50 [3] of 4.06e-07 M.
In the case of `CC[C@H](C)[C@H](NCc1cc(Cl)c(OCc2cccc(-c3ccccc3)c2Br)cc1OCc1cccnc1)C(=O)O` [Example 22, N-(4-(2-bromo-3-phenylbenzyloxy)-5-chloro-2-(pyridin-3-yl-methyleneoxy)benzyl) isoleucine], the IC50 [3] is reported as 4.99e-06 M.
